Experimental data as given in patent US20260347353A1, “INDOLIZINE DERIVATIVES FOR TREATING CANCER” (Antares Therapeutics, Inc., priority 2022, published 2026).

Key:
[1] = biological target: T1, p53 Y220C mutant protein (amino acid residues 94-293) (Homo sapiens, UniProt P04637, Y220C); experiment: Surface Plasmon Resonance (SPR) assay, p53 Y220C Kd_kinetic; conditions: multi-cycle kinetics, 16 or 20 °C, pH 7.5, 1:1 binding model
T1 construct: p53 Y220C mutant protein (amino acid residues 94-293)
T1 sequence (P04637 94-293, stated change not applied): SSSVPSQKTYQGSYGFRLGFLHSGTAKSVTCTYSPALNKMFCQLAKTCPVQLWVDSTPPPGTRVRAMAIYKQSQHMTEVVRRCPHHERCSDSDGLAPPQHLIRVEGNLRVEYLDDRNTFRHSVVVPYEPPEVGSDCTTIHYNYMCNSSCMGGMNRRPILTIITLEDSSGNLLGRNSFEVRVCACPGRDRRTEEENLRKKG
Description: SPR experiments are performed on a Biacore 8K instrument. […] Compounds are 2-fold, 7-point serial diluted; the top concentration varies depending on the potency. Compound binding affinities are measured in the multi-cycle kinetics mode, at 30 μL/min flow rate with 60 seconds association time and 120 seconds dissociation time. The running buffer contains 50 mM Tris, pH 7.5, 100 mM NaCl, 1 mM DTT, 0.01% Brij35, 0.05% Tween-20 and 1% DMSO. The assay temperature is maintained at 16 or 20 °C and data are fit into the 1:1 binding model using the Biacore Insight Evaluation software.

p53 Y220C = p53 Y220C (Homo sapiens, UniProt P04637, Y220C); experiment: Luciferase Reporter Assay, p53 Y220C (NCIH1299 cells with inducible p53 Y220C and p53 response element-luciferase); format: cell-based; conditions: 6 hour compound treatment, read-out: Luc P53 Y220C AC50
Description: Luciferase reporter (Luc) driven by p53 response element (LTV-p53-Luc (SKU #: LTLR007); G&P Biosciences) and inducible p53 Y220C construct (Tet-One inducible expression system; Takara) were stably expressed in NCIH1299 cells by lentiviral transduction. The cells were then used for p53 reporter assay. 5,000 cells were seeded in each well of 384 plate and cultured in 0.5 ug/mL doxycycline (D3072; Sigma) containing medium for 24 hours before compound treatment. After 6 hour of compound treatment, equal volume of One-Glo reagent (E6110; Promega) was added to each well and the plate was incubated for 5 minutes with shaking at room temperature. The luciferase activity was immediately measured with PheraStar microplate reader. Luciferase activity was stimulated by 10 uM of a tool compound as positive control and AC50 was calculated.

NUGC3 cells (p53 Y220C) = experiment: Cell Proliferation Assay (CellTiter-Glo), NUGC3 p53 Y220C; format: cell-based; conditions: Homo sapiens, NUGC-3, 120 h, 5 days, read-out: CTG NUGC3 P53 Y220C IC50
Description: Inducible p53 Y220C and R273H constructs (Tet-One inducible expression system; Takara) were stably expressed in NCIH1299 cells by lentiviral transduction. NUGC3, A549, BxPC3, T3M4, HuH7, HCC2935, MFE296, NCIH1299, NCIH1299-inducible p53 Y220C, and NCIH1299-inducible p53 R273H cell lines were used for cell proliferation assay. 250-500 cells were seeded in each well of 384 plate and then compounds were dispensed into each well using Echo or Tecan. After 5 days of incubation, equal volume of CellTiter-Glo reagent (G7570; Promega) was added into each well and the plate was incubated at room temperature for 10 minutes with shaking. The luminescent signal was measured by PheraStar microplate reader and IC50 was calculated.

Kd [1] [nM]	AC50 (p53 Y220C) [nM]	SMILES	IC50 (NUGC3 cells (p53 Y220C)) [nM]
< 10	< 750	CNC(=O)c1cnc(NCc2nc(-c3cc4c(N[C@@H]5CCN(C)C[C@@H]5F)cccn4c3SC(F)(F)F)no2)nc1 [Example 50, 2-({[3-(8-{[(3S,4R)-3-fluoro-1-methylpiperidin-4-yl]amino}-3-[(trifluoromethyl)sulfanyl]indolizin-2-yl)-1,2,4-oxadiazol-5-yl]methyl}amino)-N-methylpyrimidine-5-carboxamide]	750 to 1500
10 to 100	≥ 3000	CN1CC[C@@H](Nc2cccn3c(SC(F)(F)F)c(-c4noc([C@@H](CO)NC(=O)C5CC5)n4)cc23)[C@@H](F)C1 [Example 53, N-[(1R)-1-[3-(8-{[(3S,4R)-3-fluoro-1-methylpiperidin-4-yl]amino}-3-[(trifluoromethyl)sulfanyl]indolizin-2-yl)-1,2,4-oxadiazol-5-yl]-2-hydroxyethyl]cyclopropanecarboxamide]	≥ 3000
10 to 100	≥ 3000	CN1CC[C@@H](Nc2cccn3c(SC(F)(F)F)c(-c4noc([C@H](CO)NC(=O)C5CC5)n4)cc23)[C@@H](F)C1 [Example 55, N-[(1S)-1-[3-(8-{[(3S,4R)-3-fluoro-1-methylpiperidin-4-yl]amino}-3-[(trifluoromethyl)sulfanyl]indolizin-2-yl)-1,2,4-oxadiazol-5-yl]-2-hydroxyethyl]cyclopropanecarboxamide]	≥ 3000
10 to 100	≥ 3000	CN1CC[C@@H](Nc2cccn3c(SC(F)(F)F)c(-c4noc(CNC(=O)[C@H]5COCCN5C)n4)cc23)[C@@H](F)C1 [Example 68, (3R)-N-{[3-(8-{[(3S,4R)-3-fluoro-1-methylpiperidin-4-yl]amino}-3-[(trifluoromethyl)sulfanyl]indolizin-2-yl)-1,2,4-oxadiazol-5-yl]methyl}-4-methylmorpholine-3-carboxamide]	≥ 3000
		CN1CC[C@@H](Nc2cccn3c(SC(F)(F)F)c(-c4noc(CNC(=O)c5nnc[nH]5)n4)cc23)[C@@H](F)C1 [Example 83]	750 to 1500
< 10	< 750	CN1CC[C@@H](Nc2cccn3c(SC(F)(F)F)c(-c4noc(CNC(=O)c5ccn(C)c5)n4)cc23)[C@@H](F)C1 [Example 86]	
< 10	750 to 1500	CN1CC[C@@H](Nc2cccn3c(SC(F)(F)F)c(-c4cc(CNC(=O)C5CC5)no4)cc23)[C@@H](F)C1 [Example 87]	
10 to 100	< 750	CN1CC[C@@H](Nc2cccn3c(SC(F)(F)F)c(-c4cc(CNC(=O)c5cnn(C(C)(C)C)c5)on4)cc23)[C@@H](F)C1 [Example 88]	
< 10	< 750	CN1CC[C@@H](Nc2cccn3c(SC(F)(F)F)c(-c4cc(CNC(=O)c5cnc(N(C)C)o5)no4)cc23)[C@@H](F)C1 [Example 90]	
< 10	< 750	CN1CC[C@@H](Nc2cccn3c(SC(F)(F)F)c(-c4noc(CNC(=O)c5noc(N(C)C)n5)n4)cc23)[C@@H](F)C1 [Example 91]	
< 10	< 750	CN1CC[C@@H](Nc2cccn3c(SC(F)(F)F)c(-c4cc(CNC(=O)c5cnc(N(C)C)s5)no4)cc23)[C@@H](F)C1 [Example 92]	
< 10	< 750	CN1CC[C@@H](Nc2cccn3c(SC(F)(F)F)c(-c4noc(CNC(=O)c5ccn(CC(C)(C)O)c5)n4)cc23)[C@@H](F)C1 [Example 95]	
< 10	< 750	CN1CC[C@@H](Nc2cccn3c(SC(F)(F)F)c(-c4noc(CNC(=O)c5ccn(CCF)c5)n4)cc23)[C@@H](F)C1 [Example 96]	
< 10	< 750	COCC1(n2ccc(C(=O)NCc3nc(-c4cc5c(N[C@@H]6CCN(C)C[C@@H]6F)cccn5c4SC(F)(F)F)no3)c2)CC1 [Example 97]	
